Measured values: patent US6365634B1, “Naturally occurring compounds and their derivatives as cyclooxygenase 2 and/or 5-lipoxygenase inhibitors” (C-P Technology Limited Partnership, priority 1997, dated 2002)

Target: T1, ovine COX I (Ovis aries, UniProt P05979)
T1 construct: a ram seminal vesicle preparation enriched in COX I (Biomol) was used; tissue Biomol; host or cells: ram seminal vesicle
T1 sequence (P05979 25-600): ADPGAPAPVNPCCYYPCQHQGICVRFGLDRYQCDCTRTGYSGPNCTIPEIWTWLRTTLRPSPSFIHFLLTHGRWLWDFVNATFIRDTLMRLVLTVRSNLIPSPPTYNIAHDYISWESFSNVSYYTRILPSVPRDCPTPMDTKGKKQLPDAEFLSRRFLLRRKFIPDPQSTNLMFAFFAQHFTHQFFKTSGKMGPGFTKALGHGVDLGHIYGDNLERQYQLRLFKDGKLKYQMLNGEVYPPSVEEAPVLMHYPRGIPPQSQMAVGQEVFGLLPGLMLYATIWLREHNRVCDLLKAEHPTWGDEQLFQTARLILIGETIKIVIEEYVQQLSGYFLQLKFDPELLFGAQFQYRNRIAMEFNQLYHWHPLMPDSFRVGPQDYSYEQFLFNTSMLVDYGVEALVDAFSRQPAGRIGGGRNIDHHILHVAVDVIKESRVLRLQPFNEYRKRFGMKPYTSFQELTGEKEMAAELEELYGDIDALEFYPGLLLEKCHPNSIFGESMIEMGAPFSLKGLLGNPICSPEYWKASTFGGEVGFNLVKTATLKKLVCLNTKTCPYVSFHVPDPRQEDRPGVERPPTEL
Experiment: COX I biochemical assay (ram seminal vesicle preparation)
Description: Both the COX I and COX II assays were performed using modified versions of previously reported methods (Corey, E. J., Shih, C., and Cashman, J. R., 1983 Proc. Natl. Acad. Sci. v80, p3; Sigal, E., Grunberger, D., Cashman, J. R., Craik, C. S., Caughey, G. H., and Nadel, J. A., 1988 Biochem. Biophys. Res Comm. v150(1), p376). To assess for the presence of compounds in the peat bog extracts that were capable of inhibiting COX II, purified human recombinant COX II (Oxford Chemical) was suspended in 50 uL of COX assay buffer (50 mM Tris, pH 8.0) containing 0.2 mM hydroquinone, 5.0 mM tryptophan, 1.0 uM hematin, and 1.0 mM glutathione. […]
The assessment of cyclooxygenase activity (both COX I and II) in the presence and absence of the peat bog extracts was based on the quantitation of tlhe radiolabeled arachidonic acid metabolites prostaglandin A2 (PGA2), PGE2, and PGF2-alpha. […] The bands were visualized by UV-vis or I2 staining and scraped into scintillation vials for quantitation. […] The total enzyme activity (At), the corrected enzyme activity in the presence of an inhibitor (Ai), and % inhibition were calculated by the following equations: […]
The inhibitory activity of dehydroabietic acid methyl ester was assessed by performing biochemical assays that utilized 1) human recombinant COX II, 2) ovine COX I, and 3) rabbit reticulocyte 15-LO. […]

`COC(=O)[C@]1(C)CCC[C@]2(C)c3ccc(C(C)C)cc3CC[C@@H]12` [Dehydroabietic acid methyl ester, dehydroabietic acid methyl ester] was tested, and the “Percent Inhibition of COX I” value (final concentration of 250 uM) was 0.2%.
`CC(C)(c1ccccc1)c1ccc(O)cc1` [4-Cumylphenol, 4-cumylphenol] was tested, and the “Percent Inhibition of COX I” value (pure 4-cumylphenol, assay as Example 2B, concentration not given) was 1.6%.
